US20170258761A1, “Pharmaceutical Compositions Comprising Canagliflozin” (Sandoz AG, priority 2014, published 2017)
Values after ≈ are worked out from the molar mass of the structure shown. Where two headings read alike, the source gives them in different places.

What was measured:
Format in all cases: physicochemical
[1] = Precipitation inhibition screening of excipients with nephelometer; details: McIlvaine buffer pH 6.8
Procedure: In vitro high-throughput precipitation inhibition screening with nephelometer was performed for different excipients in McIlvaine buffer pH 6.8 at 1%, 0.1%, and 0.01% (w/v) according to the procedure published in Petrusevska et al (Petrusevska et al. Evaluation of light scattering and turbidity microtiter plate-based methods for detection of the excipient-mediated drug precipitation inhibition. Eur J Pharm Biopharm, 2013). The ratio between turbidity signal for each tested concentration of selected excipient with Canagliflozin and plain buffer containing only Canagliflozin were determined.

[2] = Equilibrium aqueous solubility at 25 °C (HPLC); details: water, 25 ± 1° C.
Procedure: As described in Example 5 of the co-pending application PCT/EP2014/059281, the aqueous solubilities of forms HxA and HxB of the present invention and the hemihydrate of Canagliflozin described in WO 2008/069327 A1 were determined by the equilibrium solubility method. Saturated solutions of Canagliflozin, obtained by stirring 50 mg of each crystalline form in 50 mL water were prepared and stirred at 25±1° C. After 60 minutes of stirring, three samples were withdrawn, filtered through 0.45 μm syringe filters and the filtrates were directly analyzed by HPLC.
Using six concentration points of known Canagliflozin concentrations a calibration line was fitted by linear regression.

[3] = Chemical stability in binary mixtures with excipients; details: 1 g + 1 g excipient of Table 9, tablets, 50° C., sealed glass vial, 14 days
Procedure: Canagliflozin degradation products were followed by high performance liquid chromatography using the following chromatographic method. Samples were dissolved in a mixture of 60 w/w % acetonitrile in buffer pH=5 (0.77 g of CH3OONH4 in 1 L of water, pH adjusted to pH=5 with acetic acid) to achieve a concentration of about 0.2 mg/ml of Canagliflozin. The sample solution was injected into an UHPLC system with a BEH C18 column (1.7 micrometer particles) using binary gradient elution. Mobile phase A consisted of mixture of 70 w/w % buffer with pH=5 in acetonitrile and mobile phase B consisted of acetonitrile. Gradient elution was performed according to the following program: mobile phase A (%)/time (min): 100%/0 min; 100%/5 min; 14%/[…]; 40%/35 min; 15%/40 min; 15%/45 min. The detector was set to a wavelength of 290 nm and impurities quantitated as area % with no response factors applied. Stability of samples was monitored by exposing them to elevated temperature (50° C.) in a sealed glass vial for 14 days. After storage, samples were analysed and the amounts of degradation products measured by UHPLC. The extent of degradation was determined by subtracting the total amount of degradation products of a […] from the total amount of degradation of a […].

[4] = Solubility and dynamic solubility of amorphous Canagliflozin versus hemihydrate; details: 37° C., shaking, HPLC
Procedure: Additionally dynamic solubility in water was determined at 0.5 h, 1 h and 24 h time points (37° C., shaking, HPLC determination).

[5] = Equilibrium solubility of Canagliflozin in McIlvaine buffer, FaSSIF and FeSSIF with excipients; details: 37 °C, thermodynamic from solid
Procedure: Inhibition of precipitation and supersaturation effects were also evaluated in more biorelevant dissolution media, FaSSIF and FeSSIF, prepared according to Dressman et al. (Dressman et al. Dissolution testing as a prognostic tool for oral drug absorption: immediate release dosage forms. Pharm Res, 1998)). Excipients were used in 1 mg/ml concentration. […] All tests were performed in duplicate.

[6] = Influence of water activity on physical stability of Canagliflozin; details: samples exposed to 30, 40, 50, 60 RH %, then 50° C. for 14 days
Procedure: The influence of water activity on physical stability of Canagliflozin were further tested. Prior storage at stress stability conditions samples were exposed to different relative humidity (30, 40, 50 and 60 RH %). After storage at elevated temperature (50° C.) for 14 days samples were tested for water activity and polymorphic form. It was established that Canagliflozin was physically stable when water activity was≦0.3. Results confirmed that appropriate dryness of the samples is critical for product stability.
The influence of water activity of the formulation on physical stability of Canagliflozin was further tested. Prior storage at stress stability conditions samples were exposed to different relative humidity (30, 40, 50 and 60 RH %). After storage at elevated temperature (50° C.) for 14 days samples were tested for water activity and polymorphic form. It was established that Canagliflozin was physically stable when water activity was≦0.4. Results confirmed that appropriate dryness of the samples is critical for product stability (see Table 14, showing Examples 2 and 7 as exemplary samples).

[7] = Equilibrium solubility of Canagliflozin in McIlvaine buffer, FaSSIF and FeSSIF with excipients; details: 37 °C, thermodynamic from solid; remark: listed apart in the source
[8] = Water activity of excipients, normal and dried; details: for Water activity dry (#): excipient dried for 4 hours at ambient temperature in a vacuum chamber; for Water activity normal (*): excipient exposed to 40% RH for 24 hours at ambient temperature
Procedure: The influence of water activity of each excipient on chemical and physical stability of Canagliflozin was further tested.
In Table 12, the normal (*) excipients mean that they were exposed to 40% RH for 24 hours at ambient temperature; and the dry (#) excipients mean that they were dried for 4 hours at ambient temperature in a vacuum chamber.

## CCCCCCCCCCCCOS(=O)(=O)[O-].[Na+] [Texapon, Sodium Lauryl Sulfate]
[1]; excipient at highest concentration tested (1% w/v)
  time Canagliflozin supersaturation was sustained: 10 min
[1]; highest concentration tested
  rate of canagliflozin dissolution in the presence of excipient: fastest

## Cc1ccc([C@@H]2O[C@H](CO)[C@@H](O)[C@H](O)[C@H]2O)cc1Cc1ccc(-c2ccc(F)cc2)s1 [hemihydrate of WO 2008/069327 A1 (=Hy0.5)] [1-(β-D-glucopyranosyl)-4-methyl-3-[5-(4-fluorophenyl)-2-thienylmethyl]benzene]
[2]
  Rel. Solubilities: 90%
[3]; listed as Canagliflozin hemihydrate
  degradation products (impurities) in binary mixtures with excipients: impurities were increased when containing excipients such as Syloid, PEG 6000 and Polyoxyl 40 hydrogenated castor oil

## Cc1ccc([C@@H]2O[C@H](CO)[C@@H](O)[C@H](O)[C@H]2O)cc1Cc1ccc(-c2ccc(F)cc2)s1 [1-(β-D-glucopyranosyl)-4-methyl-3-[5-(4-fluorophenyl)-2-thienylmethyl]benzene]
[2]; 25 °C, thermodynamic from solid, 60 minutes of stirring, read-out: Abs. Solubilities
  solubility at 60 min: 18 µg/mL (≈ 0.0405 mM)

## Cc1ccc([C@@H]2O[C@H](CO)[C@@H](O)[C@H](O)[C@H]2O)cc1Cc1ccc(-c2ccc(F)cc2)s1 [amorphous Canagliflozin, 1-(β-D-glucopyranosyl)-4-methyl-3-[5-(4-fluorophenyl)-2-thienylmethyl]benzene]
[4]; 0.5 h, 1 h and 24 h
  dynamic solubility in water compared to crystalline Canagliflozin hemihydrate: increased solubility as well as dynamic solubility
[4]; pH 1.2, 4.5 and 6.8
  solubility compared to crystalline Canagliflozin hemihydrate: increased solubility
[3]
  degradation products (impurities) in binary mixtures with excipients: no increase in impurities was observed

## Cc1ccc([C@@H]2O[C@H](CO)[C@@H](O)[C@H](O)[C@H]2O)cc1Cc1ccc(-c2ccc(F)cc2)s1 [form HxB, 1-(β-D-glucopyranosyl)-4-methyl-3-[5-(4-fluorophenyl)-2-thienylmethyl]benzene form HxB]
[2]
  Rel. Solubilities: 100%
  increased aqueous solubility compared to the crystalline hemihydrate of WO 2008/069327 A1: 10%
[2]; 60 minutes of stirring
  Abs. Solubilities: 20 µg/mL

## Cc1ccc([C@@H]2O[C@H](CO)[C@@H](O)[C@H](O)[C@H]2O)cc1Cc1ccc(-c2ccc(F)cc2)s1 [Canagliflozin, 1-(β-D-glucopyranosyl)-4-methyl-3-[5-(4-fluorophenyl)-2-thienylmethyl]benzene]
[5]; FaSSIF, pH 6.5, aqueous with cosolvent or surfactant or cyclodextrin, with Texapon 1 mg/ml, 24 h, read-out: Equilibrium solubility in FaSSIF pH 6.5
  solubility thermodynamic at 24 h: 7980 µg/mL (≈ 18 mM)
[5]; FaSSIF, pH 6.5, aqueous with cosolvent or surfactant or cyclodextrin, with Texapon + HPMC 603, each 1 mg/ml, 24 h, read-out: Equilibrium solubility in FaSSIF pH 6.5
  solubility thermodynamic at 24 h: 8480 ± 180 µg/mL
[5]; FeSSIF, pH 5.5, aqueous with cosolvent or surfactant or cyclodextrin, with Texapon 1 mg/ml, 24 h, read-out: Equilibrium solubility in FeSSIF pH 5.5
  solubility thermodynamic at 24 h: 25000 ± 1340 µg/mL (≈ 56.2 mM)
[5]; FeSSIF, pH 5.5, aqueous with cosolvent or surfactant or cyclodextrin, with Texapon + HPMC 603, each 1 mg/ml, 24 h, read-out: Equilibrium solubility in FeSSIF pH 5.5
  solubility thermodynamic at 24 h: 27800 ± 2350 µg/mL
[5]; FeSSIF, pH 5.5, fessif, no excipient, 24 h incubation, read-out: Equilibrium solubility in FeSSIF pH 5.5
  solubility thermodynamic at 24 h: 21000 ± 1030 µg/mL (≈ 47.3 mM)
[6]; Example A (non-stoichiometric hydrate)
  water activity at which Canagliflozin was physically stable: ≤ 0.3
[6]; Example B (amorphous formulation)
  water activity at which Canagliflozin was physically stable: ≤ 0.4
[7]; FaSSIF, pH 6.5, fassif, no excipient, 24 h incubation, read-out: Equilibrium solubility in FaSSIF pH 6.5
  solubility thermodynamic at 24 h: 5310 ± 970 µg/mL (≈ 11.9 mM)
[7]; McIlvaine buffer, pH 6.5, aqueous buffer, buffer, no excipient, 24 h incubation, read-out: Equilibrium solubility in McIlvaine buffer pH 6.5
  solubility thermodynamic at 24 h: 21 ± 1 µg/mL (≈ 0.0472 mM)
[7]; McIlvaine buffer, pH 6.5, aqueous with cosolvent or surfactant or cyclodextrin, with HPMC 606 1 mg/ml, 24 h, read-out: Equilibrium solubility in McIlvaine buffer pH 6.5
  solubility thermodynamic at 24 h: 62 ± 7 µg/mL (≈ 0.139 mM)
[7]; McIlvaine buffer, pH 6.5, aqueous with cosolvent or surfactant or cyclodextrin, with Texapon 1 mg/ml, 24 h, read-out: Equilibrium solubility in McIlvaine buffer pH 6.5
  solubility thermodynamic at 24 h: 2850 ± 332 µg/mL (≈ 6.4 mM)
[7]; McIlvaine buffer, pH 6.5, aqueous with cosolvent or surfactant or cyclodextrin, with Texapon + HPMC 603, each 1 mg/ml, 24 h, read-out: Equilibrium solubility in McIlvaine buffer pH 6.5
  solubility thermodynamic at 24 h: 2580 ± 36 µg/mL

## Cc1ccc([C@@H]2O[C@H](CO)[C@@H](O)[C@H](O)[C@H]2O)cc1Cc1ccc(-c2ccc(F)cc2)s1 [form HxA, 1-(β-D-glucopyranosyl)-4-methyl-3-[5-(4-fluorophenyl)-2-thienylmethyl]benzene form HxA]
[2]
  Rel. Solubilities: 100%
  increased aqueous solubility compared to the crystalline hemihydrate of WO 2008/069327 A1: 10%
[2]; 60 minutes of stirring
  Abs. Solubilities: 20 µg/mL

## CCCCCCCCCCCCCCCCCC(=O)[O-].CCCCCCCCCCCCCCCCCC(=O)[O-].[Mg+2] [Mg stearate]
[8]
  Water activity dry (#): 15.9
  Water activity normal (*): 26.6

## OC[C@H]1O[C@@H](O[C@H]2[C@H](O)[C@@H](O)C(O)O[C@@H]2CO)[C@H](O)[C@@H](O)[C@H]1O (stereo partly drawn) [Lactose anhydrous]
[8]
  Water activity dry (#): 14.8
  Water activity normal (*): 28.6
